From US20160083391A1, “TRICYCLIC PIPERAZINE DERIVATIVE” (Sunovion Pharmaceuticals Inc., priority 2014, published 2016)

System: PDE1
Test: In vitro HTRF PDE1 inhibition assay
Assay type: biochemical
Details: HTRF cGMP assay, 100 nM cyclic GMP, PDE (1A3, 1B or 1C) with calmodulin, 45 minutes at 37° C.; isoform of the tabulated values not stated
Summary of the method: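 Activities are given as IC50 bands (<1, 1-10, >10 μM) derived from a 665/615 nm time-resolved FRET readout after d2-cGMP/anti-cGMP cryptate detection. Enzymes PDE1A3, 1B or 1C plus calmodulin were incubated 45 min at 37 °C with 100 nM cGMP, 1% DMSO, CaCl2/MgCl2 Tris buffer pH 7.4.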

| IC50 [nM] | SMILES |
| --- | --- |
| < 1000 | CC(C)n1ncc2c(=O)n3c(nc21)CN(Cc1cccc(-c2ccccc2)c1)CC3 [Compound I-65, 8-([1,1′-Biphenyl]-3-ylmethyl)-1-isopropyl-6,7,8,9-tetrahydropyrazino[1,2-a]pyrazolo[3,4-d]pyrimidin-4(1H)-one] |
| 1000 to 10000 | CC(C)n1ncc2c(=O)n3c(nc21)CN(Cc1ccc(-c2ccccc2)cc1)CC3 [Compound I-66, 8-([1,1′-Biphenyl]-4-ylmethyl)-1-isopropyl-6,7,8,9-tetrahydropyrazino[1,2-a]pyrazolo[3,4-d]pyrimidin-4(1H)-one] |
| < 1000 | CC(C)n1ncc2c(=O)n3c(nc21)CN(Cc1ccccc1Cl)CC3 [Compound I-67, 8-(2-Chlorobenzyl)-1-isopropyl-6,7,8,9-tetrahydropyrazino[1,2-a]pyrazolo[3,4-d]pyrimidin-4(1H)-one] |
| 1000 to 10000 | CC(C)Cn1ncc2c(=O)n3c(nc21)CN(Cc1ccccc1Cl)CC3 [Compound I-68, 8-(2-Chlorobenzyl)-1-isobutyl-6,7,8,9-tetrahydropyrazino[1,2-a]pyrazolo[3,4-d]pyrimidin-4(1H)-one] |
| < 1000 | O=c1c2cnn(C3CCCC3)c2nc2n1CCN(Cc1ccccc1Cl)C2 [Compound I-69, 8-(2-Chlorobenzyl)-1-cyclopentyl-6,7,8,9-tetrahydropyrazino[1,2-a]pyrazolo[3,4-d]pyrimidin-4(1H)-one] |
| < 1000 | CC(C)n1ncc2c(=O)n3c(nc21)CN(Cc1cccc(Cl)c1)CC3 [Compound I-70, 8-(3-Chlorobenzyl)-1-isopropyl-6,7,8,9-tetrahydropyrazino[1,2-a]pyrazolo[3,4-d]pyrimidin-4(1H)-one] |
| < 1000 | CC(C)Cn1ncc2c(=O)n3c(nc21)CN(Cc1cccc(Cl)c1)CC3 [Compound I-71, 8-(3-Chlorobenzyl)-1-isobutyl-6,7,8,9-tetrahydropyrazino[1,2-a]pyrazolo[3,4-d]pyrimidin-4(1B)-one] |
| < 1000 | O=c1c2cnn(C3CCCC3)c2nc2n1CCN(Cc1cccc(Cl)c1)C2 [Compound I-72, 8-(3-Chlorobenzyl)-1-cyclopentyl-6,7,8,9-tetrahydropyrazino[1,2-a]pyrazolo[3,4-d]pyrimidin-4(1H)-one] |
| < 1000 | CC(C)n1ncc2c(=O)n3c(nc21)CN(Cc1ccc(Cl)cc1)CC3 [Compound I-73, 8-(4-Chlorobenzyl)-1-isopropyl-6,7,8,9-tetrahydropyrazino[1,2-a]pyrazolo[3,4-d]pyrimidin-4(1H)-one] |
| < 1000 | CC(C)Cn1ncc2c(=O)n3c(nc21)CN(Cc1ccc(Cl)cc1)CC3 [Compound I-74, 8-(4-Chlorobenzyl)-1-isobutyl-6,7,8,9-tetrahydropyrazino[1,2-a]pyrazolo[3,4-d]pyrimidin-4(1H)-one] |
| < 1000 | O=c1c2cnn(C3CCCC3)c2nc2n1CCN(Cc1ccc(Cl)cc1)C2 [Compound I-75, 8-(4-Chlorobenzyl)-1-cyclopentyl-6,7,8,9-tetrahydropyrazino[1,2-a]pyrazolo[3,4-d]pyrimidin-4(1H)-one] |
| 1000 to 10000 | COc1ccccc1CN1CCn2c(nc3c(cnn3C(C)C)c2=O)C1 [Compound I-76, 1-Isopropyl-8-(2-methoxybenzyl)-6,7,8,9-tetrahydropyrazino[1,2-a]pyrazolo[3,4-d]pyrimidin-4(1H)-one] |
| 1000 to 10000 | COc1ccccc1CN1CCn2c(nc3c(cnn3CC(C)C)c2=O)C1 [Compound I-77, 1-Isobutyl-8-(2-methoxybenzyl)-6,7,8,9-tetrahydropyrazino[1,2-a]pyrazolo[3,4-d]pyrimidin-4(1H)-one] |
| < 1000 | COc1ccccc1CN1CCn2c(nc3c(cnn3C3CCCC3)c2=O)C1 [Compound I-78, 1-Cyclopentyl-8-(2-methoxybenzyl)-6,7,8,9-tetrahydropyrazino[1,2-a]pyrazolo[3,4-d]pyrimidin-4(1H)-one] |
| 1000 to 10000 | COc1cccc(CN2CCn3c(nc4c(cnn4C(C)C)c3=O)C2)c1 [Compound I-79, 1-Isopropyl-8-(3-methoxybenzyl)-6,7,8,9-tetrahydropyrazino[1,2-a]pyrazolo[3,4-d]pyrimidin-4(1H)-one] |
| 1000 to 10000 | COc1cccc(CN2CCn3c(nc4c(cnn4CC(C)C)c3=O)C2)c1 [Compound I-80, 1-Isobutyl-8-(3-methoxybenzyl)-6,7,8,9-tetrahydropyrazino[1,2-a]pyrazolo[3,4-d]pyrimidin-4(1H)-one] |
| < 1000 | COc1cccc(CN2CCn3c(nc4c(cnn4C4CCCC4)c3=O)C2)c1 [Compound I-81, 1-Cyclopentyl-8-(3-methoxybenzyl)-6,7,8,9-tetrahydropyrazino[1,2-a]pyrazolo[3,4-d]pyrimidin-4(1H)-one] |
| < 1000 | COc1ccc(CN2CCn3c(nc4c(cnn4C(C)C)c3=O)C2)cc1 [Compound I-82, 1-Isopropyl-8-(4-methoxybenzyl)-6,7,8,9-tetrahydropyrazino[1,2-a]pyrazolo[3,4-d]pyrimidin-4(1H)-one] |
| < 1000 | COc1ccc(CN2CCn3c(nc4c(cnn4CC(C)C)c3=O)C2)cc1 [Compound I-83, 1-Isobutyl-8-(4-methoxybenzyl)-6,7,8,9-tetrahydropyrazino[1,2-a]pyrazolo[3,4-d]pyrimidin-4(1H)-one] |

| IC50 [nM] | SMILES |
| --- | --- |
| < 1000 | COc1ccc(CN2CCn3c(nc4c(cnn4C4CCCC4)c3=O)C2)cc1 [Compound I-84, 1-Cyclopentyl-8-(4-methoxybenzyl)-6,7,8,9-tetrahydropyrazino[1,2-a]pyrazolo[3,4-d]pyrimidin-4(1H)-one] |
| 1000 to 10000 | CC(C)n1ncc2c(=O)n3c(nc21)CN(c1ccccc1Cl)CC3 [Compound I-85, 8-(2-Chlorophenyl)-1-isopropyl-6,7,8,9-tetrahydropyrazino[1,2-a]pyrazolo[3,4-d]pyrimidin-4(1H)-one] |
| 1000 to 10000 | CC(C)Cn1ncc2c(=O)n3c(nc21)CN(c1ccccc1Cl)CC3 [Compound I-86, 8-(2-Chlorophenyl)-1-isobutyl-6,7,8,9-tetrahydropyrazino[1,2-a]pyrazolo[3,4-d]pyrimidin-4(1H)-one] |
| 1000 to 10000 | O=c1c2cnn(C3CCCC3)c2nc2n1CCN(c1ccccc1Cl)C2 [Compound I-87, 8-(2-Chlorophenyl)-1-cyclopentyl-6,7,8,9-tetrahydropyrazino[1,2-a]pyrazolo[3,4-d]pyrimidin-4(1H)-one] |
| < 1000 | CC(C)n1ncc2c(=O)n3c(nc21)CN(c1cccc(Cl)c1)CC3 [Compound I-88, 8-(3-Chlorophenyl)-1-isopropyl-6,7,8,9-tetrahydropyrazino[1,2-a]pyrazolo[3,4-d]pyrimidin-4(1H)-one] |
| < 1000 | CC(C)Cn1ncc2c(=O)n3c(nc21)CN(c1cccc(Cl)c1)CC3 [Compound I-89, 8-(3-Chlorophenyl)-1-isobutyl-6,7,8,9-tetrahydropyrazino[1,2-a]pyrazolo[3,4-d]pyrimidin-4(1H)-one] |
| 1000 to 10000 | O=c1c2cnn(C3CCCC3)c2nc2n1CCN(c1cccc(Cl)c1)C2 [Compound I-90, 8-(3-Chlorophenyl)-1-cyclopentyl-6,7,8,9-tetrahydropyrazino[1,2-a]pyrazolo[3,4-d]pyrimidin-4(1H)-one] |
| < 1000 | CC(C)n1ncc2c(=O)n3c(nc21)CN(c1ccc(Cl)cc1)CC3 [Compound I-91, 8-(4-Chlorophenyl)-1-isopropyl-6,7,8,9-tetrahydropyrazino[1,2-a]pyrazolo[3,4-d]pyrimidin-4(1H)-one] |
| < 1000 | CC(C)Cn1ncc2c(=O)n3c(nc21)CN(c1ccc(Cl)cc1)CC3 [Compound I-92, 8-(4-Chlorophenyl)-1-isobutyl-6,7,8,9-tetrahydropyrazino[1,2-a]pyrazolo[3,4-d]pyrimidin-4(1H)-one] |
| < 1000 | O=c1c2cnn(C3CCCC3)c2nc2n1CCN(c1ccc(Cl)cc1)C2 [Compound I-93, 8-(4-Chlorophenyl)-1-cyclopentyl-6,7,8,9-tetrahydropyrazino[1,2-a]pyrazolo[3,4-d]pyrimidin-4(1H)-one] |
| 1000 to 10000 | COc1ccccc1N1CCn2c(nc3c(cnn3C(C)C)c2=O)C1 [Compound I-94, 1-Isopropyl-8-(2-methoxyphenyl)-6,7,8,9-tetrahydropyrazino[1,2-a]pyrazolo[3,4-d]pyrimidin-4(1H)-one] |
| < 1000 | O=c1c2cnn(C3CCCC3)c2nc2n1CCN(c1ccccc1)C2 [Compound I-95, 1-Cyclopentyl-8-phenyl-6,7,8,9-tetrahydropyrazino[1,2-a]pyrazolo[3,4-d]pyrimidin-4(1H)-one] |
| 1000 to 10000 | COc1ccccc1N1CCn2c(nc3c(cnn3C3CCCC3)c2=O)C1 [Compound I-96, 1-Cyclopentyl-8-(2-methoxyphenyl)-6,7,8,9-tetrahydropyrazino[1,2-a]pyrazolo[3,4-d]pyrimidin-4(1H)-one] |
| < 1000 | COc1cccc(N2CCn3c(nc4c(cnn4C(C)C)c3=O)C2)c1 [Compound I-97, 1-Isopropyl-8-(3-methoxyphenyl)-6,7,8,9-tetrahydropyrazino[1,2-a]pyrazolo[3,4-d]pyrimidin-4(1H)-one] |
| < 1000 | COc1cccc(N2CCn3c(nc4c(cnn4C4CCCC4)c3=O)C2)c1 [Compound I-98, 1-Cyclopentyl-8-(3-methoxyphenyl)-6,7,8,9-tetrahydropyrazino[1,2-a]pyrazolo[3,4-d]pyrimidin-4(1H)-one] |
| > 10000 | Cc1nn(C2CCCC2)c2nc3n(c(=O)c12)CCN(Cc1ccc(Cl)cc1)C3 [Compound I-111, 8-(4-Chlorobenzyl)-1-cyclopentyl-3-methyl-6,7,8,9-tetrahydropyrazino[1,2-d]pyrazolo[3,4-d]pyrimidin-4(1H)-one] |
| > 10000 | COc1ccc(CN2CCn3c(nc4c(c(C)nn4C4CCCC4)c3=O)C2)cc1 [Compound I-112, 1-Cyclopentyl-8-(4-methoxybenzyl)-3-methyl-6,7,8,9-tetrahydropyrazino[1,2-d]pyrazolo[3,4-d]pyrimidin-4(1H)-one] |
| 1000 to 10000 | O=C(c1ccc(Cl)cc1)N1CCn2c(nc3c(cnn3C3CCCC3)c2=O)C1 [Compound I-115, 8-(4-Chlorobenzoyl)-1-cyclopentyl-6,7,8,9-tetrahydropyrazino[1,2-a]pyrazolo[3,4-d]pyrimidin-4(1H)-one] |
